One data set concerns Enterococcus faecalis. Nature of the data set: Antibacterial activity against Enterococcus faecalis ATCC 14506 assessed as growth inhibition at 1 mg/ml after 24 hrs by agar diffusion method. The format is functional, organism-based. A general note: A growth-free zone around the sample is the usual read-out of agar diffusion tests.
For data set [1], the system named is Staphylococcus epidermidis. Description: Antibacterial activity against Staphylococcus epidermidis ATCC 12228 assessed as growth inhibition at 1 mg/ml after 24 hrs by agar diffusion method. The data set is classed as functional, organism-based.
A further data set deals with Salmonella typhimurium. Description: Antibacterial activity against Salmonella typhimurium ATCC 51812 assessed as growth inhibition at 1 mg/ml after 24 hrs by agar diffusion method. The format is functional, organism-based. As to conditions: Salmonella enterica subsp. enterica serovar Typhimurium.
Data set [2] relates to Staphylococcus aureus. Description: Antibacterial activity against methicillin-resistant Staphylococcus aureus ATCC 43300 assessed as growth inhibition at 1 mg/ml after 24 hrs by agar diffusion method. The format is functional, organism-based.
In data set [3] the test system is Staphylococcus aureus. Nature of the data set: Antibacterial activity against Staphylococcus aureus ATCC 25923 assessed as growth inhibition at 1 mg/ml after 24 hrs by agar diffusion method. The data set is classed as functional. The settings on record: ATCC 25923, 24 h, read-out: DIZ.
A short description of data set [4]: Selectivity index, ratio of CC50 for african green monkey vero cells to MIC for Staphylococcus aureus ATCC 25923. The format is functional.
A further data set relates to Pseudomonas aeruginosa. Nature of the data set: Antibacterial activity against Pseudomonas aeruginosa ATCC 10145 assessed as growth inhibition at 1 mg/ml after 24 hrs by agar diffusion method. The format is functional. As to conditions: ATCC 10145, 24 h, read-out: DIZ.
The test system of data set [5] is Staphylococcus aureus. Nature of the data set: Bactericidal activity against Staphylococcus aureus ATCC 25923 by broth dilution method. The data set is classed as functional. On the technique in general: Dilution methods test growth across graded concentrations, often in twofold steps.
For a further data set, the system named is Serratia marcescens. Description: Antibacterial activity against Serratia marcescens ATCC 13880 assessed as growth inhibition at 1 mg/ml after 24 hrs by agar diffusion method. The data set is classed as functional. As to conditions: ATCC 13880, 24 h, read-out: DIZ.
The nature of data set [6]: Selectivity index, ratio of CC50 for african green monkey vero cells to MIC for Bacillus subtilis ATCC 11774. The data set is classed as functional.
In data set [7] the test system is Escherichia coli. Description: Antibacterial activity against Escherichia coli ATCC 10536 assessed as growth inhibition by broth dilution method. The format is functional.
The subject of data set [8] is Bacillus subtilis. Description: Antibacterial activity against Bacillus subtilis ATCC 11774 assessed as growth inhibition at 1 mg/ml after 24 hrs by agar diffusion method. The data set is classed as functional. The settings on record: ATCC 11774, 24 h, read-out: DIZ.
Data set [9] relates to Bacillus subtilis. Nature of the data set: Antibacterial activity against Bacillus subtilis ATCC 11774 assessed as growth inhibition by broth dilution method. The data set is classed as functional.
Data set [10] has as its system Bacillus subtilis. Nature of the data set: Bactericidal activity against Bacillus subtilis ATCC 11774 by broth dilution method. The format is functional.
In data set [11] the test system is Escherichia coli. Description: Antibacterial activity against Escherichia coli ATCC 10536 assessed as growth inhibition at 1 mg/ml after 24 hrs by agar diffusion method. The format is functional. As to conditions: ATCC 10536, 24 h, read-out: DIZ.
The subject of data set [12] is Escherichia coli. Description: Bactericidal activity against Escherichia coli ATCC 10536 by broth dilution method. The format is functional.
A short description of data set [13]: Selectivity index, ratio of CC50 for african green monkey vero cells to MIC for Escherichia coli ATCC 10536. The data set is classed as functional.
The test system of data set [14] is Staphylococcus aureus. Nature of the data set: Antibacterial activity against Staphylococcus aureus ATCC 25923 assessed as growth inhibition by broth dilution method. The format is functional.
Data set [15] is described as follows: Cytotoxicity against african green monkey vero cells by MTT assay. The format is cell-based. As to conditions: chlorocebus sabaeus. Background: Tetrazolium dyes change colour on reduction, which living cells bring about.

Each structure is given as a SMILES string. Values after ≈ are worked out from the molar mass of the structure shown. Active and inactive are the calls of the source. The rule behind the calls is not given here.

One may read the MBC as the lowest tested concentration that kills the bacteria rather than only halting them. In general, MIC refers to the lowest concentration found to suppress growth. Broadly, the CC50 is the concentration that lowers cell viability or growth by half.

In the case of `N#Cc1c(N)nc2c(C#N)c(N3CCOCC3)nn2c1N1CCCCC1`, the “growth inhibition (GI)” value (in the data set on Enterococcus faecalis; in [1]; in the data set on Salmonella typhimurium; with Staphylococcus aureus [2]) was “inactive” each time.
As to `Cc1ccc(C)n1-c1[nH]nc(N2CCOCC2)c1C#N`, the zone of inhibition at 1000 µg/mL with Staphylococcus aureus [3] came out at 10 mm; with Pseudomonas aeruginosa it was 6 mm; in the data set on Serratia marcescens it was 6 mm; in the data set with Bacillus subtilis [8], 14 mm; with Escherichia coli [11], 10 mm. Also, the “growth inhibition (GI)” value (in the data set with Enterococcus faecalis; in data set [1]; in the data set with Salmonella typhimurium; in the data set with Staphylococcus aureus [2]) was “inactive” in each case. The “Selectivity Index” value in data set [4] was 0.06; in [6], 0.13; in [13] it was 0.06. Further, the figures for the minimum bactericidal concentration (MBC) against Staphylococcus aureus [5], in the data set with Bacillus subtilis [10] and against Escherichia coli [12] were 4 mg/mL (≈ 14.7 mM), 4 mg/mL (≈ 14.7 mM) and 8 mg/mL (≈ 29.5 mM), respectively. The MIC stood at 4 mg/mL (≈ 14.7 mM) in the data set on Escherichia coli [7], 2 mg/mL (≈ 7.37 mM) with Bacillus subtilis [9] and 2 mg/mL (≈ 7.37 mM) in the data set with Staphylococcus aureus [14]. Half-maximal cytotoxicity in data set [15] (CC50) was put at 0.254 mg/mL (≈ 0.936 mM).
With `CC(=O)c1nnc2c(C#N)c(N3CCCCC3)nn2c1C`, the zone of inhibition at 1000 µg/mL with Staphylococcus aureus [3] stood at 9 mm; in the data set with Pseudomonas aeruginosa it was 6 mm; in the data set on Serratia marcescens it was 6 mm; in the data set on Bacillus subtilis [8], 10 mm; in the data set on Escherichia coli [11] it was 8 mm. The “growth inhibition (GI)” value (in the data set on Enterococcus faecalis; in data set [1]; with Salmonella typhimurium; with Staphylococcus aureus [2]) was “inactive” throughout. The “Selectivity Index” value in [4], in [6] and in [13] was 0.02 in each case. The MBC with Staphylococcus aureus [5], against Bacillus subtilis [10] and against Escherichia coli [12] was 16 mg/mL (≈ 56.3 mM) each time. In addition, the MIC with Escherichia coli [7], in the data set on Bacillus subtilis [9] and in the data set on Staphylococcus aureus [14] was 16 mg/mL (≈ 56.3 mM) throughout. In data set [15], this molecule returned a CC50 of 0.312 mg/mL (≈ 1.1 mM).
Regarding `N#Cc1nnc2c(C#N)c(N3CCOCC3)nn2c1N`, the “growth inhibition (GI)” value (with Enterococcus faecalis; in data set [1]; in the data set with Salmonella typhimurium; with Staphylococcus aureus [2]) was “inactive” throughout.
With `N#Cc1nnc2c(C#N)c(N3CCCC3)nn2c1N`, the “growth inhibition (GI)” value (with Enterococcus faecalis; in [1]; in the data set with Salmonella typhimurium; with Staphylococcus aureus [2]) was “inactive” throughout.
With `N#Cc1c(N)nc2c(C#N)c(N3CCOCC3)nn2c1N1CCOCC1`, the “growth inhibition (GI)” value (in the data set on Enterococcus faecalis; in data set [1]; in the data set on Salmonella typhimurium; with Staphylococcus aureus [2]) was “inactive” in each case.
Turning to `CSc1c(C#N)c(N)nc2c(C#N)c(N3CCOCC3)nn12`, the “growth inhibition (GI)” value (in the data set with Enterococcus faecalis; in data set [1]; in the data set with Salmonella typhimurium; in the data set with Staphylococcus aureus [2]) was “inactive” in each case.
Regarding `CC(=O)c1nnc2c(C#N)c(N3CCCC3)nn2c1C`, the “growth inhibition (GI)” value (with Enterococcus faecalis; in data set [1]; in the data set on Salmonella typhimurium; in the data set with Staphylococcus aureus [2]) was “inactive” in each case.
For `N#Cc1c(N)nc2c(C#N)c(N3CCCC3)nn2c1N1CCCCC1`, the “growth inhibition (GI)” value (with Enterococcus faecalis; in data set [1]; with Salmonella typhimurium; in the data set on Staphylococcus aureus [2]) was “inactive” in each case.
Turning to `CC(=O)c1nnc2c(C#N)c(N3CCOCC3)nn2c1C`, the “growth inhibition (GI)” value (in the data set on Enterococcus faecalis; in [1]; with Salmonella typhimurium; in the data set with Staphylococcus aureus [2]) was “inactive” throughout.
With `Cc1cc(O)n2nc(N3CCCC3)c(C#N)c2n1`, the “growth inhibition (GI)” value (in the data set on Enterococcus faecalis; in [1]; with Salmonella typhimurium; in the data set on Staphylococcus aureus [2]) was “inactive” throughout.
For `CC(=O)n1nc(N2CCOCC2)c(C#N)c1N`, the “growth inhibition (GI)” value (in the data set with Enterococcus faecalis; in data set [1]; with Salmonella typhimurium; in the data set on Staphylococcus aureus [2]) was “inactive” in each case.
For the molecule `Cc1cc(C)n2nc(N3CCCC3)c(C#N)c2n1`, the “growth inhibition (GI)” value (in the data set with Enterococcus faecalis; in [1]; in the data set on Salmonella typhimurium; in the data set with Staphylococcus aureus [2]) was “inactive” in each case.
As to `CSc1c(C#N)c(N)nc2c(C#N)c(N3CCCC3)nn12`, the “growth inhibition (GI)” value (in the data set on Enterococcus faecalis; in [1]; in the data set with Salmonella typhimurium; in the data set with Staphylococcus aureus [2]) was “inactive” throughout.
Regarding `Cc1cc(C)n2nc(N3CCOCC3)c(C#N)c2n1`, the “growth inhibition (GI)” value (with Enterococcus faecalis; in data set [1]; with Salmonella typhimurium; with Staphylococcus aureus [2]) was “inactive” in each case.
Consider `Cc1cc(O)n2nc(N3CCCCC3)c(C#N)c2n1`, for which the “growth inhibition (GI)” value (with Enterococcus faecalis; in [1]; in the data set with Salmonella typhimurium; with Staphylococcus aureus [2]) was “inactive” throughout.
Take `N#Cc1c(N)nc2c(C#N)c(N3CCCC3)nn2c1N1CCOCC1`: the “growth inhibition (GI)” value (with Enterococcus faecalis; in [1]; in the data set with Salmonella typhimurium; with Staphylococcus aureus [2]) was “inactive” throughout.
In the case of `CC(=O)n1nc(N2CCCCC2)c(C#N)c1N`, the zone of inhibition at 1000 µg/mL with Staphylococcus aureus [3] was 10 mm; with Pseudomonas aeruginosa, 6 mm; with Serratia marcescens it was 6 mm; in the data set on Bacillus subtilis [8], 6 mm; with Escherichia coli [11] it was 10 mm. The “growth inhibition (GI)” value (in the data set with Enterococcus faecalis; in [1]; in the data set on Salmonella typhimurium; in the data set with Staphylococcus aureus [2]) was “inactive” throughout. Also, the results for the MBC in the data set with Staphylococcus aureus [5], in the data set with Bacillus subtilis [10] and against Escherichia coli [12] were above 16 mg/mL, 16 mg/mL (≈ 68.6 mM) and 16 mg/mL (≈ 68.6 mM), respectively. In addition, the “Selectivity Index” value in data set [6] amounted to 0.06. Moreover, the minimal inhibitory concentration (MIC) in the data set with Escherichia coli [7], with Bacillus subtilis [9] and with Staphylococcus aureus [14] was 16 mg/mL (≈ 68.6 mM) each time. In [15], the cytotoxic concentration (CC50) stood at 1.01 mg/mL (≈ 4.35 mM).

(Values after ChEMBL document CHEMBL2390874, “Synthesis, antibacterial activity and cytotoxicity of new fused pyrazolo[1,5-a]pyrimidine and pyrazolo[5,1-c][1,2,4]triazine derivatives from new 5-aminopyrazoles” (Eur J Med Chem, 2013).)
